Molecular target: T1, POLγA:Y955C (Homo sapiens, UniProt P54098, Y955C)
T1 sequence (P54098 1-1239 Y955C): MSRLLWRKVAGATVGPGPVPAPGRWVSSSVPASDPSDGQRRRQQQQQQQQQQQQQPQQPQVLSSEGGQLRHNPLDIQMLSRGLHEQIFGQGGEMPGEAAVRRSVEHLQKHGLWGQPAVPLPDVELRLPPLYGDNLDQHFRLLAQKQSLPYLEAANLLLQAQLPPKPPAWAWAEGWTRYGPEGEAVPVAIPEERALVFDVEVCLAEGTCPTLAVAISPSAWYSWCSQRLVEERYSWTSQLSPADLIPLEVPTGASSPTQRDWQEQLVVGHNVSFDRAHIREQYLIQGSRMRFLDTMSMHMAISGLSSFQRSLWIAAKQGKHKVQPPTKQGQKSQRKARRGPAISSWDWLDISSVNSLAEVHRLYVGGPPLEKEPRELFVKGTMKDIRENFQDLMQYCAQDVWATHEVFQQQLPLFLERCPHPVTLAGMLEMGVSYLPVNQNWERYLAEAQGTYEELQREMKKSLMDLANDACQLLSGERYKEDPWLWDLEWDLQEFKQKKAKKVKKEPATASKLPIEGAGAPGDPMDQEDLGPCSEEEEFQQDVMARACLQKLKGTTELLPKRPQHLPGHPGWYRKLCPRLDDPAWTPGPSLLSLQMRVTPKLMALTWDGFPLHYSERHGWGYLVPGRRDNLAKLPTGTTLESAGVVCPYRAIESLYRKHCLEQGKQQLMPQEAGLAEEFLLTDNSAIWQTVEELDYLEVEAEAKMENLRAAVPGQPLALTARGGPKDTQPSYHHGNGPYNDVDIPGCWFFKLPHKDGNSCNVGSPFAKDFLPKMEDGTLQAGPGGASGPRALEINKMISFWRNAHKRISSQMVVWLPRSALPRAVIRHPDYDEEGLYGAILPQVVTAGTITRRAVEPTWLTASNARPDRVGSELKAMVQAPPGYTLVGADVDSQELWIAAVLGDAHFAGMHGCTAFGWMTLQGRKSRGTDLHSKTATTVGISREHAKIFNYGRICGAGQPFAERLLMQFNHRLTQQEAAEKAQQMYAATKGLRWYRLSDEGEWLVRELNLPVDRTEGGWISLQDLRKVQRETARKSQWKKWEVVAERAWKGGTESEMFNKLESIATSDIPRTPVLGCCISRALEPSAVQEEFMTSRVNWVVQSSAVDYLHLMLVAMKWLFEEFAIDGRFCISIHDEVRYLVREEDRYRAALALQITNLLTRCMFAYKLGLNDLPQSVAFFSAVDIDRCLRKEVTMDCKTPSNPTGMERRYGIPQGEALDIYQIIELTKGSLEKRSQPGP
T1 sequence (Q9UHN1 1-485 partner): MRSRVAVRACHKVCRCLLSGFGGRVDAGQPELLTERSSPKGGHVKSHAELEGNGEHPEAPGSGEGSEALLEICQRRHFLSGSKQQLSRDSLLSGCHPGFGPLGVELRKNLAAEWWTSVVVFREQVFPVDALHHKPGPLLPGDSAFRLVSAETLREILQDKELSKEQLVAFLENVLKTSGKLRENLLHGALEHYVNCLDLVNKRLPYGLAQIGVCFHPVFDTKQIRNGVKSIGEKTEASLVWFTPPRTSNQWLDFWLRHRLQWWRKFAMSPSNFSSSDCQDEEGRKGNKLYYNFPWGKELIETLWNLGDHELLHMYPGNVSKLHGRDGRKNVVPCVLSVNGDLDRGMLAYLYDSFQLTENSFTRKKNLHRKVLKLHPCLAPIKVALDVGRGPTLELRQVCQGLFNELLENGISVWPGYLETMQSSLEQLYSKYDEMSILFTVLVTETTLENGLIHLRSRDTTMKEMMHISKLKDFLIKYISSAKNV
Test: DNA polymerization assay, POLγA:Y955C mutant
Type: biochemical
Conditions: stimulation of polymerase activity, primed M13mp18 ssDNA, 37° C. 2 hours
Procedure: DNA Polymerization Assay to Monitor Effects on Human Wildtype POLγ and Four Disease-Causing Mutant Variants of Human POLγ.
The ability of small molecules to stimulate the polymerase activity of POLγ was analyzed in a quantitative fluorescence SYBR Green I assay with fluorescence intensity (FI) readout.
In the presence of dNTPs, wild type human POLγ and mutant derivatives thereof were incubated with single-stranded, circular M13mp18 ssDNA hybridized to a short DNA oligonucleotide that functions as a primer for initiation of DNA synthesis. POLγ and mutant derivatives thereof will extend the primer and use the M13mp18 molecule as a template to synthesize long stretches of double-stranded DNA. SYBR Green I, which is a double-stranded DNA-binding dye, was used to quantify formation of double-stranded DNA in the reaction. When bound to double-stranded DNA, SYBR Green I fluorescence increases by up to 100-fold.
The assay was performed in the 384-well plate format. Upon addition of compounds, changes in double-stranded DNA synthesis activity can be monitored by following effects on fluorescent intensity.
The reactions also contained the accessory POLγB subunit, and the human mitochondrial single-stranded DNA binding protein (mtSSB).
The DNA template mixture used in the assay contained 0.5 nM primed M13 mp18 ssDNA, 400 nM mtSSB, 0.1 mM Tris-HCl (pH 8.0), 0.1 mM dNTP, 10 mM MgCl2, 0.1 mg/mL BSA, 1 mM TCEP solution, and 0.02% Triton X-100. The DNA template mixture for the wild type protein contained either 100 μM dNTP, 1 μM dNTP, or 0.1 μM dNTP, designated in Table 2 as 100 μM, 1 μM, and 0.1 μM, respectfully.
Microplates with compounds (0.1 μL in each well) to be tested in the assay were prepared from 10 mM compound stocks in 100% DMSO, and equal amounts of DMSO without any compound were added to positive and negative control wells.
The protein mixture was dispensed (5 μL into each well) into compound plates and incubated at 37° C. for 15 minutes. After incubation, 5 μL of the DNA template mixture was dispensed into each well. The plates were then incubated at 37° C. for 2 hours.
During incubation, a combined stop buffer and detection reagent solution was prepared. The buffer contained 25 mM EDTA (pH 8.0), 0.02% Triton X-100, and SYBR Green I [Invitrogen] diluted 10,000× (for fluorescent readout). EDTA will stop the enzymatic reaction by chelating magnesium ions.

Row | AC50 [nM] | SMILES
1 | 200 | Cc1cc(S(=O)(=O)Nc2csc(-c3ccccc3)n2)c(C)cc1Cl [Example 81, 4-chloro-2,5-dimethyl-N-(2-phenylthiazol-4-yl)benzenesulfonamide]
2 | 800 | Cc1nc2ccc(NS(=O)(=O)c3cc(C)c(Cl)cc3C)cc2s1 [Example 73, 4-chloro-2,5-dimethyl-N-(2-methylbenzo[d]thiazol-6-yl)benzenesulfonamide]
3 | > 100000 | Cc1csc(-c2ccccc2NS(=O)(=O)c2cc(C)c(Cl)cc2C)n1 [Example 80, 4-chloro-2,5-dimethyl-N-(2-(4-methylthiazol-2-yl)phenyl)benzenesulfonamide]
4 | 6000 | Cc1cc(S(=O)(=O)Nc2cccc(-c3ncc(CN(C)C)s3)c2)c(C)cc1Cl [Example 87, 4-chloro-N-(3-(5-((dimethylamino)methyl)thiazol-2-yl)phenyl)-2,5-dimethylbenzenesulfonamide]
5 | 100 | Cc1cc(S(=O)(=O)Nc2cccc(-c3ncc(CO)s3)c2)c(C)cc1Cl [Example 89, 4-chloro-N-(3-(5-(hydroxymethyl)thiazol-2-yl)phenyl)-2,5-dimethylbenzenesulfonamide]
6 | 6000 | Cc1cc(S(=O)(=O)Nc2ccc3ccn(C)c3c2)c(C)cc1Cl [Example 72, 4-chloro-2,5-dimethyl-N-(1-methyl-1H-indol-6-yl)benzenesulfonamide]
7 | 2000 | Cc1cc(S(=O)(=O)Nc2cccc(-c3ncc(C4CC4)s3)c2)c(C)cc1Cl [Example 76, 4-chloro-N-(3-(5-cyclopropylthiazol-2-yl)phenyl)-2,5-dimethylbenzenesulfonamide]
